Data published in PubChem BioAssay AID434987 (Southern Research Specialized Biocontainment Screening …, 2010).
Activity calls are given as the source filed them. The rule behind the calls is not given here.

Tested on: M. tuberculosis H37Rv growth inhibition with meropenem
Assay: dose response, H37Rv, with and without meropenem (AID 434987);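 note: growth over 7 days at 37 °C before Alamar Blue read on day 9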
[1] = M. tuberculosis H37Rv growth inhibition, measured here: IC50 without meropenem
[2] = M. tuberculosis H37Rv growth inhibition, measured here: IC90 without meropenem
[3] = measured here: IC90 with meropenem

| Structure (SMILES) | IC50 | IC50 [1] | IC90 [2] | IC90 [3] |
| --- | --- | --- | --- | --- |
| CCCCCn1c(=O)c(C(=O)NCc2ccncc2)c(O)c2ccccc21 | 35.3 µM (inactive) | 81.4 µM | > 100 µM | > 100 µM |
| O=C(Nc1ccc(Cl)cc1)C1CC2CCCC(C1)C2=O (stereo unspecified) | > 100 µM (inactive) | > 100 µM | > 100 µM | > 100 µM |
| COc1nc(-c2ccccc2)ccc1-c1noc(-c2cccnc2)n1 | > 100 µM (inactive) | > 100 µM | > 100 µM | > 100 µM |
| CCN(CC)C(=O)C1CCCN(c2ccc([N+](=O)[O-])cc2/C=N/NC(=O)c2cccc([N+](=O)[O-])c2)C1 (stereo unspecified) | > 100 µM (inactive) | > 100 µM | > 100 µM | > 100 µM |
| CC(=O)c1ccc(OC(=O)N(c2ccccc2)c2ccccc2)cc1 | 4.13 µM | 29.6 µM | > 100 µM | 32.9 µM |
| O=c1oc(-c2ccccc2)nc2sc3c(c12)CCC3 | 32.2 µM | > 100 µM | > 100 µM | > 100 µM |
| COc1ccc(NC(=O)C(Cc2ccccc2)n2cccc2)c(OC)c1 (stereo unspecified) | 13.6 µM | 47.5 µM | > 100 µM | > 100 µM |
| Cc1c(C(=O)NCCC2=CCCCC2)sc2ncnc(N3CCCCC3C)c12 (stereo unspecified) | 47.5 µM (inactive) | 65.7 µM | > 100 µM | 52 µM |
| c1ccc(-c2ccc(C3=Nn4c(Cn5nnc6ccccc65)nnc4SC3)cc2)cc1 | 53.5 µM (inactive) | 84.4 µM | > 100 µM | > 100 µM |
| Cc1c(C=O)c(C=O)c(C)n1Cc1ccccc1 | 31.9 µM (inactive) | 52 µM | > 100 µM | 69.3 µM |
| O=C(NNC(=O)c1cc(OCC(F)(F)F)ccc1OCC(F)(F)F)c1cccc(C(F)(F)F)c1 | > 100 µM (inactive) | > 100 µM | > 100 µM | > 100 µM |
| N#Cc1c(SCC(=O)O)nc(N2CCCCC2)c2c1CCCC2 | 15.6 µM | 49.6 µM | > 100 µM | 27 µM |
| COC(=O)C1=C(C)NC(=O)/C1=C\c1cc(C)n(-c2cc(C)cc(C)c2)c1C | 88.9 µM (inactive) | 97.9 µM | > 100 µM | > 100 µM |
| Cc1ccc(S(=O)(=O)NCCCCCC(=O)Nc2ccccn2)cc1 | > 100 µM (inactive) | > 100 µM | > 100 µM | > 100 µM |
| O=C(NNC1=C(C(=O)C(F)(F)F)CCC1)c1cccc(O)c1 | 68 µM (inactive) | > 100 µM | > 100 µM | > 100 µM |
| O=C(COC(=O)c1ccc(Cl)cc1[N+](=O)[O-])NNC(=O)c1cccs1 | 24.8 µM (inactive) | 39.4 µM | 53.9 µM | 51.1 µM |
| CCN(CC)c1ccc(C(=O)n2cnc3ccccc32)cc1 | 70.3 µM (inactive) | 91.6 µM | > 100 µM | > 100 µM |
| CCOc1ccc2nc(NC(=O)c3cnccn3)sc2c1 | 4.07 µM | > 100 µM | > 100 µM | > 100 µM |
| Nc1ccc(N=Nc2ccccc2O)c(N)c1 | 6.58 µM | 33.8 µM | > 100 µM | 34 µM |
| COc1ccc(C(=O)n2c(SC)nc3cc4c(cc32)OCCO4)cc1 | 34.3 µM | > 100 µM | > 100 µM | > 100 µM |

| Structure (SMILES) | IC50 | IC50 [1] | IC90 [2] | IC90 [3] |
| --- | --- | --- | --- | --- |
| CC(C)C[C@H](NC(=O)c1nc[nH]c1C(=O)N1CCN(C(=O)OC(C)(C)C)CC1)C(=O)OCc1ccccc1 | 48.8 µM (inactive) | 49.4 µM | 56.1 µM | 54.9 µM |
| COc1ccccc1CNC(=O)COC(=O)C1=COCCO1 | 18.5 µM | 67.9 µM | > 100 µM | > 100 µM |
| Cc1ccccc1C(=O)Oc1ccccc1N1C(=O)C2CC=CCC2C1=O (stereo unspecified) | > 100 µM (inactive) | > 100 µM | > 100 µM | > 100 µM |
| Clc1ccc(CSc2ccc(-c3cccnc3)nn2)cc1 | 40.1 µM | > 100 µM | > 100 µM | > 100 µM |
| COc1ccc(-c2nn(-c3ccccc3)cc2C(=O)Nc2nccs2)cc1OC | > 100 µM (inactive) | > 100 µM | > 100 µM | > 100 µM |
| S=C(Nc1ccc(Cl)cc1)c1nc2ccccc2s1 | 43.2 µM (inactive) | > 100 µM | > 100 µM | > 100 µM |
| COc1nc(Nc2nc3ccccc3c(=O)[nH]2)nc2ccc(C)cc12 | > 100 µM (inactive) | > 100 µM | > 100 µM | > 100 µM |
| COc1cccc(/C=N/NC(=O)NC23CC4CC(CC(C4)C2)C3)c1O | 2.93 µM | 46.9 µM | > 100 µM | 26.8 µM |
| CC12CCC(C/C1=N\N=C1\NC(=O)/C(=C\c3cccc(Br)c3)S1)C2(C)C (stereo unspecified) | 9.74 µM | 26.6 µM | 37.3 µM | 37.7 µM |
| C/C(=N/NC(=O)c1cccs1)c1ccc(NC(=O)COc2ccc(Cl)cc2)cc1 | > 100 µM (inactive) | > 100 µM | > 100 µM | > 100 µM |
| Cc1ccc(/C=C/C(=O)OCC(=O)NC(C)c2ccccc2)o1 (stereo unspecified) | > 100 µM (inactive) | > 100 µM | > 100 µM | > 100 µM |
| Cc1n[nH]c(C)c1CCCOc1ccccc1 | 24.1 µM (inactive) | 39.5 µM | > 100 µM | > 100 µM |
| COc1ccc(C2C(C#N)=C(SCC(=O)Nc3ccc(C)cc3)NC3=C2C(=O)CC(C)(C)C3)cc1 (stereo unspecified) | 94.3 µM (inactive) | > 100 µM | > 100 µM | > 100 µM |
| CN(C)CC(=O)Nc1nc(-c2ccccc2)cs1 | 10.5 µM | 83 µM | > 100 µM | > 100 µM |
| O=C(CSc1nnc(SCc2ccccc2)s1)N/N=C/c1ccc(Cl)cc1Cl | 72.2 µM (inactive) | > 100 µM | > 100 µM | > 100 µM |
| CCCCCc1ccc(-c2ccc(/C=C/C(N)=O)cc2)nc1 | > 100 µM (inactive) | > 100 µM | > 100 µM | > 100 µM |
| Nc1cc(=O)nc(SCc2ccccc2)n1Cc1ccco1 | 87.3 µM (inactive) | > 100 µM | > 100 µM | > 100 µM |
| CN1C2CCC1CC(OC(=O)c1ccc([N+](=O)[O-])cc1)C2 (stereo unspecified) | > 100 µM (inactive) | > 100 µM | > 100 µM | > 100 µM |
| O=C(NC1CCCC1)c1ccccc1OCc1ccccc1 | 5.69 µM | 37.6 µM | > 100 µM | > 100 µM |
| CSc1nnc(C)c(/C=C/Nc2ccc(Cl)cc2)n1 | 94 µM (inactive) | 94.5 µM | > 100 µM | > 100 µM |

| Structure (SMILES) | IC50 | IC50 [1] | IC90 [2] | IC90 [3] |
| --- | --- | --- | --- | --- |
| Cn1c2ccccc2c(=O)c2cc(C#CC3(O)CCCCC3)ccc21 | > 100 µM (inactive) | > 100 µM | > 100 µM | > 100 µM |
| O=C1OC(/C=C/c2ccccc2)=NC/1=C/c1ccco1 | 0.691 µM | 3.11 µM | 13 µM | 13.9 µM |
| O=C(Cc1ccccc1Cl)Nc1nc2ccccc2[nH]1 | 9.31 µM | > 100 µM | > 100 µM | > 25 µM |
| O=C1C2ON(c3ccc(Br)cc3)C(c3cccnc3)C2C(=O)N1C1CCCCC1 (stereo unspecified) | > 100 µM (inactive) | > 100 µM | > 100 µM | > 100 µM |
| COc1cc(NC(=O)C2CCCCC2)c(OC)cc1NC(=O)CN1CCCCC1 | 9.28 µM | 47.4 µM | > 100 µM | > 100 µM |
| Cc1ccccc1/C=N\NC(=O)c1csnn1 | 21.6 µM | > 100 µM | > 100 µM | > 100 µM |
| CCCSc1nnc(NC(=O)c2sc3nc(-c4cccs4)ccc3c2N)s1 | 62.8 µM (inactive) | > 100 µM | > 100 µM | > 100 µM |
| CCN1C(=O)C(=Cc2ccc(N3CCOCC3)o2)C(=O)N(CC)C1=S | > 100 µM (inactive) | > 100 µM | > 100 µM | > 100 µM |
| Cc1cc(/C=N/NC(=O)CC#N)c(C)n1-c1ccc([N+](=O)[O-])cc1 | 10.2 µM | > 100 µM | > 100 µM | > 100 µM |
| CC1(C)Cc2c(C#N)c(SCc3ccccc3)nc(N3CCOCC3)c2CO1 | > 100 µM (inactive) | > 100 µM | > 100 µM | > 100 µM |
| CCOc1cc(CNCCN(C)C)c(Cl)cc1OCC(=O)NCCc1ccccc1 | > 100 µM (inactive) | > 100 µM | > 100 µM | > 100 µM |
| COc1ccc(C2(CNC(=O)c3cc([N+](=O)[O-])cc([N+](=O)[O-])c3)CCCC2)cc1OC | 1.43 µM (inactive) | 1.86 µM | 3 µM | 1.61 µM |
| Cc1nnnn1/C(=C\c1ccccc1)C(=O)OCC(=O)Nc1ccc(Cl)cc1F | 17 µM (inactive) | 26.7 µM | 35.8 µM | 25.5 µM |
| Cc1cc(C)c(C)c(S(=O)(=O)N2C(=S)NC(=O)C2CC(C)C)c1C (stereo unspecified) | > 100 µM (inactive) | > 100 µM | > 100 µM | > 100 µM |
| Cc1cccc(NC(=O)Cn2cnc3c(oc4ccccc43)c2=O)c1C | > 100 µM (inactive) | > 100 µM | > 100 µM | > 100 µM |
| CCC(C)Nc1c2c(nc3c(-c4ccccc4)c(C)nn13)CCC2 (stereo unspecified) | > 100 µM (inactive) | > 100 µM | > 100 µM | > 100 µM |
| CCOC(=O)Cn1c(C)cc(=O)c2cccc(C)c21 | 26.4 µM | > 100 µM | > 100 µM | > 100 µM |
| COc1ccc(-c2csc(-c3cccs3)n2)c(OC)c1 | 67.6 µM (inactive) | 68.2 µM | > 100 µM | > 100 µM |
| CSc1cccc(NC(=O)c2ccc(Cl)nc2)c1 | > 100 µM (inactive) | > 100 µM | > 100 µM | > 100 µM |
